Source: patent publication US20240327493A1 (GEORGE MASON UNIVERSITY, priority 2023, published 2024)
Entries after “also recorded” stand apart in the source; their conditions may differ.

What was measured:
[1] = test system: human PBMCs co-cultured with OVCAR8 cells; experiment: Co-culture of OVCAR8 cells and stimulated human PBMCs, 10:1 OVCAR8:PBMC ratio; type: cell-based; conditions: MN1.4 450, 100 or 10 μM, 24 hours, FIG. 10A
Description: For this model, PBMCs and cancer cells were both stimulated prior to co-culture to promote expression of PD-1 and PD-L1, respectively.
Stimulation of the PBMCs causes them to release inflammatory cytokines including IL-2 and TNFα,
OVCAR8 cells, generously provided by the Gottesman Lab (National Institutes of Health, Bethesda, MD, USA), and MDA-MB-231 cells (American Type Culture Collection, Rockville, MD, USA) were cultured in Gibco RPMI 1640 media (ThermoFisher Scientific, Cat. No. 11-875-093) supplemented with 10% Gibco fetal bovine serum (ThermoFisher Scientific, Cat. No. 10437028), and 1% penicillin/streptomycin (10,000 U/mL pen, 10 mg/mL strcp) from MilliporeSigma (Burlington, MA, USA, Cat. No. P4333). Cells were cultured at 37° C. and 5% CO2. […]
For co-culture experiments with excess OVCAR8 ratios, OVCAR8 cells were seeded at a density of 2×10^5 cells/mL on a 6-well plate and allowed to adhere overnight. […] On Day 3, concentrations of PBMCs and OVCAR8 cells (harvested from a control well) were measured using the QuadCount Automated Cell Counter (Accuris Instruments). The concentration of PBMCs required for a 10:1 OVCAR8:PBMC ratio was calculated from the OVCAR8 concentration. […]
For experiments analyzed via IL-2 PCR-ELISA, the levels of IL-2 in the collected supernatants were measured using the IL-2 Human ProQuantum Immunoassay Kit (ThermoFisher Scientific, Cat. No. A35603). […]

[2] = human serum diluted 1:4 in RPMI, ESI-MS, 0, 6, 24, 48 hours
Description: Angiotensin I was spiked in and used for normalization.
Human serum was diluted 1:4 in Gibco RPMI 1640 media (ThermoFisher Scientific, Waltham, MA, USA, Cat. No. 11-875-093) for a total of 1 mL and incubated at 37° C. for 15 minutes prior to time course. Next, 1 μL of the peptide stock was added to warmed serum for a final concentration of […] in the master mix. The rest of the time course was performed at room temperature. For each time point, aliquots of 100 μL were removed from the master mix and added to 200 μL of 3% trifluoroacetic acid. Samples were incubated on ice for 15 minutes before centrifugation at 16,000×g for 2.5 minutes. Supernatants were transferred to a clean tube and prepared for desalting via C18 column by adding 100 μL of sample buffer (20% acetonitrile, 2% trifluoroacetic acid) to supernatants before storage at—20° C. overnight. Samples were then processed through Pierce C18 spin columns (ThermoFisher Scientific, Cat. No. 89870) according to the manufacturer's instructions. […]
For ESI-MS analysis, serum stability samples were run on an Orbitrap Exploris 480 (ThermoFisher Scientific). […] ThermoFisher's Xcalibur 4.0 Data System was used for peptide quantification. […] The samples were batch reprocessed for quantification via peak area. Peptide abundances were normalized based on Angiotensin I abundance and quantified relative to initial abundance.

In the case of `CC[C@H](C)[C@@H]1NC(=O)[C@H](CCSC)NC(=O)[C@H](C)NC(=O)[C@H](CCCNC(=N)N)NC(=O)[C@@H](N)CSSC[C@@H](C(=O)O)NC(=O)[C@H]([C@@H](C)CC)NC(=O)[C@H](CCCNC(=N)N)N(C)C(=O)[C@H](CCCCN)NC(=O)[C@H](Cc2ccc(O)cc2)NC(=O)[C@H](CC(=O)O)NC(=O)[C@H](C)NC(=O)CNC(=O)CNC(=O)[C@H](Cc2ccc(O)cc2)NC(=O)[C@H](CO)NC1=O` [SEQ ID NO. 5, CRAMISYGGADYKXIC], the IL-2 secretion [1] is reported as “secretion of IL-2 reduced in a dose dependent manner”, the IL-2 secretion ([1]; listed as MN1.4) is reported as “enhanced the suppression of IL-2 secretion by T cells in a dose-dependent manner; also recorded: decreased released IL-2 in a dose dependent manner” and the Degradation in serum [2] is reported as “not significantly degraded at 48 hours”.
